± gives the standard deviation of the averaged measurements.
Experiments:
Test in all cases: level (log10 ratio to DMSO vehicle control); higher = higher biomarker level / cell amount than vehicle control
Conditions in all cases: in DMSO
[1] = compound: C=C(C)C(=O)OCCC(F)(F)C(F)(F)C(F)(F)C(F)(F)C(F)(C(F)(F)F)C(F)(F)F [(Perfluoro-5-methylhexyl)ethyl 2-methylprop-2-enoate]
Experimental: (§1)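 BioMAP Diversity Plus panel of 12 human primary cell co-culture systems (3C, 4H, LPS, SAg, BT, BF4T, BE3C, CASM3C, HDF3CGF, KF3CT, MyoF, Mphg). Compounds were added 1 h before stimulation and left for 24 h (MyoF 48 h; BT 72 h for soluble read-outs or 6 d for IgG). Biomarkers were read by ELISA, cytotoxicity by SRB, PBMC viability and proliferation by Alamar Blue. Each well value was divided by the mean of 8 DMSO control wells on the same plate and log10 transformed; duplicate blinded samples were tested at 4 concentrations.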

[2] = compound: C=CC(=O)OCC(F)(F)C(F)(F)C(F)(F)C(F)(F)C(F)(F)C(F)(F)C(F)(F)F [1H,1H-Perfluorooctyl acrylate]
Experimental: as §1

[3] = compound: C=CC(F)(F)C(F)(F)C(F)(F)C(F)(F)C(F)(F)C(F)(F)C(F)(F)C(F)(F)C=C [1,8-Divinylperfluorooctane]
Experimental: as §1

[4] = compound: NC(=O)C(F)(F)C(F)(F)F [Pentafluoropropionamide]
Experimental: as §1

[5] = compound: O=C(O)C(F)(F)C(F)(F)C(F)(F)C(F)(F)C(F)(F)C(F)(F)C(F)(F)C(F)F [9-H-Perfluorononanoic acid]
Experimental: as §1

[6] = compound: O=C(O)C(F)(F)OC(F)(F)C(F)(F)OC(F)(F)C(=O)O [Perfluoro-3,6-dioxaoctane-1,8-dioic acid]
Experimental: as §1

[7] = compound: O=S(=O)(O)C(F)(F)C(F)(F)C(F)(F)C(F)(F)C(F)(F)C(F)(F)F [Perfluorohexanesulfonic acid]
Experimental: as §1

| Test System | level (log10) ([1]; 6700 nM) | level (log10) ([1]; 20000 nM) | level (log10) ([2]; 6700 nM) | level (log10) ([2]; 20000 nM) | level (log10) ([2]; 60000 nM) | level (log10) ([3]; 6700 nM) | level (log10) ([3]; 20000 nM) | level (log10) ([4]; 6700 nM) | level (log10) ([4]; 20000 nM) | level (log10) ([4]; 60000 nM) | level (log10) ([5]; 6700 nM) | level (log10) ([5]; 20000 nM) | level (log10) ([5]; 60000 nM) | level (log10) ([6]; 6700 nM) | level (log10) ([6]; 20000 nM) | level (log10) ([6]; 60000 nM) | level (log10) ([7]; 6700 nM) | level (log10) ([7]; 20000 nM) | level (log10) ([7]; 60000 nM) |
| --- | --- | --- | --- | --- | --- | --- | --- | --- | --- | --- | --- | --- | --- | --- | --- | --- | --- | --- | --- |
| MyoF:Decorin | -0.006 ± 0.037 | 0.008 ± 0.052 | -0.0145 ± 0.011 | -0.005 | 0.003 ± 0.018 | 0.0075 ± 0.013 | 0.0335 ± 0.022 | 0.01 ± 0.017 | 0.0135 ± 0.00071 | 0.0325 ± 0.028 | 0.0315 ± 0.0035 | 0.051 ± 0.0071 | 0.093 ± 0.016 | -0.0045 ± 0.011 | -0.01 | -0.0005 ± 0.013 | -0.0305 ± 0.046 | -0.0105 ± 0.00071 | -0.0095 ± 0.0064 |
| KF3CT:SRB | -0.006 ± 0.0014 | 0.003 ± 0.016 | -0.007 ± 0.0014 | -0.0055 ± 0.00071 | -0.002 ± 0.0071 | -0.011 ± 0.018 | -0.0235 ± 0.005 | -0.006 ± 0.0014 | -0.0025 ± 0.0035 | -0.007 ± 0.023 | -0.0175 ± 0.005 | -0.019 ± 0.0014 | -0.032 ± 0.0042 | -0.0185 ± 0.011 | -0.0185 ± 0.0092 | 0.0015 ± 0.012 | -0.0015 ± 0.0021 | -0.0095 ± 0.005 | 0.0005 ± 0.023 |
| MyoF:alpha-SM Actin | -0.018 ± 0.037 | -0.0255 ± 0.04 | 0.016 ± 0.0085 | -0.0215 ± 0.032 | -0.0185 ± 0.039 | -0.016 ± 0.0042 | -0.0155 ± 0.028 | -0.007 ± 0.02 | -0.0135 ± 0.019 | -0.0195 ± 0.018 | -0.0215 ± 0.019 | -0.0245 ± 0.013 | -0.049 ± 0.014 | 0.001 | -0.0125 ± 0.013 | 0.0245 ± 0.0021 | 0.012 ± 0.0071 | 0.006 ± 0.021 | 0.008 ± 0.031 |
| KF3CT:CXCL10/IP-10 | -0.0085 ± 0.012 | -0.0325 ± 0.00071 | 0.0055 ± 0.0035 | 0 ± 0.0071 | -0.003 ± 0.014 | -0.001 ± 0.018 | -0.0135 ± 0.005 | -0.007 ± 0.0014 | 0 ± 0.0028 | -0.0145 ± 0.0035 | -0.0155 ± 0.0021 | -0.0265 ± 0.0064 | -0.039 ± 0.0099 | 0.0045 ± 0.011 | 0.0095 ± 0.022 | 0.029 ± 0.0085 | -0.006 | -0.016 ± 0.0028 | -0.022 ± 0.016 |
| 3C:CD106/VCAM-1 | -0.032 ± 0.0099 | -0.012 ± 0.0085 | -0.0215 ± 0.023 | -0.0245 ± 0.021 | -0.012 ± 0.0028 | -0.018 ± 0.017 | -0.003 ± 0.011 | -0.0215 ± 0.013 | -0.009 ± 0.027 | -0.0105 ± 0.005 | -0.025 ± 0.016 | -0.018 ± 0.035 | -0.0185 ± 0.04 | 0.0105 ± 0.016 | -0.002 ± 0.02 | 0.0015 ± 0.0064 | -0.0085 ± 0.026 | -0.029 ± 0.0042 | -0.014 ± 0.025 |
| KF3CT:IL-1alpha | -0.014 ± 0.0028 | -0.0225 ± 0.0035 | -0.0075 ± 0.022 | -0.001 ± 0.0071 | -0.007 ± 0.0028 | -0.0455 ± 0.013 | -0.0075 ± 0.057 | -0.0165 ± 0.005 | -0.034 ± 0.0085 | -0.0105 ± 0.044 | 0.006 ± 0.0071 | -0.0195 ± 0.012 | -0.039 ± 0.035 | 0.0075 ± 0.00071 | -0.0065 ± 0.013 | 0.02 ± 0.013 | 0.0065 ± 0.054 | -0.014 ± 0.016 | -0.015 ± 0.017 |
| CASM3C:CD141/Thrombomodulin | -0.0185 ± 0.069 | 0.0165 ± 0.098 | -0.002 ± 0.0028 | 0.0035 ± 0.011 | 0.002 ± 0.017 | 0.0015 ± 0.022 | -0.0145 ± 0.0078 | -0.023 ± 0.034 | -0.0315 ± 0.011 | -0.0555 ± 0.015 | -0.003 ± 0.0099 | -0.0075 ± 0.0035 | 0.0075 ± 0.0021 | 0.0045 ± 0.018 | 0.002 ± 0.0028 | 0.017 ± 0.0071 | 0.0005 ± 0.0064 | 0.0015 ± 0.005 | -0.0055 ± 0.022 |
| lMphg:CD62E/E-Selectin | -0.0135 ± 0.011 | -0.01 ± 0.017 | -0.0075 ± 0.023 | 0.004 ± 0.017 | -0.004 ± 0.021 | -0.006 ± 0.024 | -0.054 ± 0.038 | -0.018 ± 0.0014 | 0.016 ± 0.014 | -0.013 ± 0.0071 | -0.005 ± 0.037 | 0.0085 ± 0.035 | 0.0585 ± 0.021 | -0.027 ± 0.034 | -0.018 ± 0.016 | 0.0185 ± 0.0092 | 0.0145 ± 0.00071 | 0.019 ± 0.0099 | 0.0955 ± 0.035 |
| CASM3C:CD142/Tissue Factor | -0.037 ± 0.024 | -0.0265 ± 0.056 | 0.0095 ± 0.005 | -0.004 ± 0.0014 | -0.0005 ± 0.0092 | 0.0035 ± 0.028 | -0.0085 ± 0.005 | -0.0025 ± 0.022 | -0.0095 ± 0.018 | -0.0295 ± 0.026 | -0.0025 ± 0.0078 | -0.012 ± 0.028 | 0.006 ± 0.017 | -0.012 ± 0.013 | -0.0275 ± 0.022 | 0.0215 ± 0.053 | 0.0145 ± 0.047 | -0.0005 ± 0.023 | 0.005 ± 0.0014 |
| HDF3CGF:M-CSF | -0.0175 ± 0.0078 | -0.0175 ± 0.0035 | 0.0085 ± 0.015 | -0.006 ± 0.0057 | -0.053 ± 0.069 | -0.0335 ± 0.042 | -0.0085 ± 0.053 | 0.0015 ± 0.011 | -0.0135 ± 0.0035 | 0.0085 ± 0.06 | -0.067 ± 0.0028 | -0.0835 ± 0.011 | -0.05 ± 0.027 | -0.007 ± 0.014 | -0.003 ± 0.0028 | -0.0045 ± 0.00071 | 0.001 ± 0.0085 | -0.012 ± 0.0028 | 0.0015 ± 0.00071 |

Source: the supplement of paper PMC10331698
